Measured values: ChEMBL document CHEMBL5465560, “Selectivity Literature for EUbOPEN Chemogenomic Library” (2024)
Blank lines part the entries; values can stand above or below the compound they belong to.

Legend:
[1] = biological target: Serine/threonine-protein kinase 24 (Homo sapiens) (UniProt Q9Y6E0); details: at 10 µM
[2] = biological target: Serine/threonine-protein kinase PLK1 (Homo sapiens, UniProt P53350); details: at 10 µM
[3] = biological target: T1, Muscarinic acetylcholine receptor M2 (Homo sapiens) (UniProt P08172); experiment: Selectivity interaction (Panel of kinases, GPCRs, ion channels and transporters (enzymatic assay)) EUB0000266bCl CHRM2
T1 sequence (whole entry): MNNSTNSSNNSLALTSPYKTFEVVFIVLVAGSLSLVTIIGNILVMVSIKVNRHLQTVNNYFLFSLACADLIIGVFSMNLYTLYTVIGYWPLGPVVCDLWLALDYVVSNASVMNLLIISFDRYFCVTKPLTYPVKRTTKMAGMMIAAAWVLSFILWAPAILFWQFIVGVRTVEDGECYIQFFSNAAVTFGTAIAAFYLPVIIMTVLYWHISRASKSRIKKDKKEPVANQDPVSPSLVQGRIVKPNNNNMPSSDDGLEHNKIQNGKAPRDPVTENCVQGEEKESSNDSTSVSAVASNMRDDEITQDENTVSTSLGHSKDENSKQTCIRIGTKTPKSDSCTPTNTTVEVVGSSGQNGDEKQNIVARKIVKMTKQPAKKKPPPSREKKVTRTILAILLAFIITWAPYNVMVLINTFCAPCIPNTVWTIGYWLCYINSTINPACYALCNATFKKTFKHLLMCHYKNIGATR

[4] = biological target: T2, Sphingosine kinase 2 (Homo sapiens) (UniProt Q9NRA0); experiment: Selectivity interaction (Kinase panel (literature)) EUB0001199aCl SPHK2; details: at 1 µM
T2 sequence (whole entry): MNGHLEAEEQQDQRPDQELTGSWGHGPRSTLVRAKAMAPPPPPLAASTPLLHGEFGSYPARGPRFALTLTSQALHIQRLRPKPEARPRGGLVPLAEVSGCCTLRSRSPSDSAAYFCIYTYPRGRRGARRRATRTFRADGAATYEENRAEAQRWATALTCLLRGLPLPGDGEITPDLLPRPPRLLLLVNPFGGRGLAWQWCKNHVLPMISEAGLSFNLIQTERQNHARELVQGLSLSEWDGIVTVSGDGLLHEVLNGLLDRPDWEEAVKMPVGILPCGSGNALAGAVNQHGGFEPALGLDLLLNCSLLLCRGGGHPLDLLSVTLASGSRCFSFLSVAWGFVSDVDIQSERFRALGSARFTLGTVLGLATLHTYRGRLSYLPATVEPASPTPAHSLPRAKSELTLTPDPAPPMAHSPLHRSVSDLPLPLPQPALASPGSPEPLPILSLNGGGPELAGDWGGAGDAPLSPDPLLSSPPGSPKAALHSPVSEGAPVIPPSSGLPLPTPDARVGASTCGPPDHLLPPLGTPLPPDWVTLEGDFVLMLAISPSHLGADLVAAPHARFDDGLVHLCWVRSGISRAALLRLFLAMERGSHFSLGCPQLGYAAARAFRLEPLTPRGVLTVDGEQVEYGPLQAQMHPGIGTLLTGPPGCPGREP

[5] = biological target: T3, Mitogen-activated protein kinase 12 (Homo sapiens) (UniProt P53778); experiment: Selectivity interaction (Kinase panel (Z-LYTE Assay)) EUB0001632a MAPK12; details: at 10 µM
T3 sequence (whole entry): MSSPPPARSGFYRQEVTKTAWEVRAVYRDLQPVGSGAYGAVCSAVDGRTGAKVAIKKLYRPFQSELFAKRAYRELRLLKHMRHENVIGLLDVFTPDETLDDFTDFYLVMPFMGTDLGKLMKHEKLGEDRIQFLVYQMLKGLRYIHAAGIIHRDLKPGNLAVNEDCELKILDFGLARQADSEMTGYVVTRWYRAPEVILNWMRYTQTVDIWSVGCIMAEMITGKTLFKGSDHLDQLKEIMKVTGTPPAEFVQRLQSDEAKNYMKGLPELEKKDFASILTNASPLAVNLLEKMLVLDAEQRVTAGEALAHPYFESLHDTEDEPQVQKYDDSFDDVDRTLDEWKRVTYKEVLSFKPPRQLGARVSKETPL

[6] = biological target: Hepatocyte growth factor receptor (Homo sapiens, UniProt P08581); details: at 10 µM
[7] = biological target: T4, Serine/threonine-protein kinase Nek5 (Homo sapiens) (UniProt Q6P3R8); experiment: Selectivity interaction (KinomeScan (DiscoverX)) EUB0000092b NEK5; details: at 10 µM
T4 sequence (whole entry): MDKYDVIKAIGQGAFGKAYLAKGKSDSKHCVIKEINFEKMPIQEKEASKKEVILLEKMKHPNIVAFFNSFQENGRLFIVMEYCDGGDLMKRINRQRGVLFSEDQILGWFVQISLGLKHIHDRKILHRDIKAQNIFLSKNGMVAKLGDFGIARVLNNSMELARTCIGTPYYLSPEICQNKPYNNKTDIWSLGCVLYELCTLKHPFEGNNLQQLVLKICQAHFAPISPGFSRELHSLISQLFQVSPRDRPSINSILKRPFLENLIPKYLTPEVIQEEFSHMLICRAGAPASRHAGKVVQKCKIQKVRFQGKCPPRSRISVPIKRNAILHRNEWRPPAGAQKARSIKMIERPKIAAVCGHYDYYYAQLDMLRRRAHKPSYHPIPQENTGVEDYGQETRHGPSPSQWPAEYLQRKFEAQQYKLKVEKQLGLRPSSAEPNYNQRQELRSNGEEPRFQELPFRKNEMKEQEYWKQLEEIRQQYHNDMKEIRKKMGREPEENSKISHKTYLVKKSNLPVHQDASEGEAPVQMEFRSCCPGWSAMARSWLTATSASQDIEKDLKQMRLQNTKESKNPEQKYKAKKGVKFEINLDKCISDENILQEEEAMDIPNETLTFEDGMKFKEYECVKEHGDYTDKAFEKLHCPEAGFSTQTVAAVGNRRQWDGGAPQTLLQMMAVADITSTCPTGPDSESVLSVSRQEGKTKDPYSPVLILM

[8] = biological target: Protein-tyrosine kinase 2-beta (Homo sapiens) (UniProt Q14289); experiment: Selectivity interaction (KinomeScan (DiscoverX)) EUB0000655a PTK2B; details: at 10 µM
[9] = biological target: Mitogen-activated protein kinase 7 (Homo sapiens) (UniProt Q13164); experiment: Selectivity interaction (ActivX KiNativ screen (ex vivo kinase selectivity in human PBMCs)) EUB0001619a MAPK7; format: cell-based; details: PBMC, at 1 µM
[10] = biological target: Serine/threonine-protein kinase PAK 4 (Homo sapiens, UniProt O96013); experiment: Selectivity interaction (SelectScreen profiling (Invitrogen)) EUB0000607a PAK4; details: at 2 µM
[11] = biological target: Mitogen-activated protein kinase kinase kinase 4 (Homo sapiens) (UniProt Q9Y6R4); experiment: Selectivity interaction (KinomeScan (DiscoverX)) EUB0000666a MAP3K4; details: at 10 µM
Sequence of Mitogen-activated protein kinase kinase kinase 4 (Homo sapiens) (Q9Y6R4 whole entry): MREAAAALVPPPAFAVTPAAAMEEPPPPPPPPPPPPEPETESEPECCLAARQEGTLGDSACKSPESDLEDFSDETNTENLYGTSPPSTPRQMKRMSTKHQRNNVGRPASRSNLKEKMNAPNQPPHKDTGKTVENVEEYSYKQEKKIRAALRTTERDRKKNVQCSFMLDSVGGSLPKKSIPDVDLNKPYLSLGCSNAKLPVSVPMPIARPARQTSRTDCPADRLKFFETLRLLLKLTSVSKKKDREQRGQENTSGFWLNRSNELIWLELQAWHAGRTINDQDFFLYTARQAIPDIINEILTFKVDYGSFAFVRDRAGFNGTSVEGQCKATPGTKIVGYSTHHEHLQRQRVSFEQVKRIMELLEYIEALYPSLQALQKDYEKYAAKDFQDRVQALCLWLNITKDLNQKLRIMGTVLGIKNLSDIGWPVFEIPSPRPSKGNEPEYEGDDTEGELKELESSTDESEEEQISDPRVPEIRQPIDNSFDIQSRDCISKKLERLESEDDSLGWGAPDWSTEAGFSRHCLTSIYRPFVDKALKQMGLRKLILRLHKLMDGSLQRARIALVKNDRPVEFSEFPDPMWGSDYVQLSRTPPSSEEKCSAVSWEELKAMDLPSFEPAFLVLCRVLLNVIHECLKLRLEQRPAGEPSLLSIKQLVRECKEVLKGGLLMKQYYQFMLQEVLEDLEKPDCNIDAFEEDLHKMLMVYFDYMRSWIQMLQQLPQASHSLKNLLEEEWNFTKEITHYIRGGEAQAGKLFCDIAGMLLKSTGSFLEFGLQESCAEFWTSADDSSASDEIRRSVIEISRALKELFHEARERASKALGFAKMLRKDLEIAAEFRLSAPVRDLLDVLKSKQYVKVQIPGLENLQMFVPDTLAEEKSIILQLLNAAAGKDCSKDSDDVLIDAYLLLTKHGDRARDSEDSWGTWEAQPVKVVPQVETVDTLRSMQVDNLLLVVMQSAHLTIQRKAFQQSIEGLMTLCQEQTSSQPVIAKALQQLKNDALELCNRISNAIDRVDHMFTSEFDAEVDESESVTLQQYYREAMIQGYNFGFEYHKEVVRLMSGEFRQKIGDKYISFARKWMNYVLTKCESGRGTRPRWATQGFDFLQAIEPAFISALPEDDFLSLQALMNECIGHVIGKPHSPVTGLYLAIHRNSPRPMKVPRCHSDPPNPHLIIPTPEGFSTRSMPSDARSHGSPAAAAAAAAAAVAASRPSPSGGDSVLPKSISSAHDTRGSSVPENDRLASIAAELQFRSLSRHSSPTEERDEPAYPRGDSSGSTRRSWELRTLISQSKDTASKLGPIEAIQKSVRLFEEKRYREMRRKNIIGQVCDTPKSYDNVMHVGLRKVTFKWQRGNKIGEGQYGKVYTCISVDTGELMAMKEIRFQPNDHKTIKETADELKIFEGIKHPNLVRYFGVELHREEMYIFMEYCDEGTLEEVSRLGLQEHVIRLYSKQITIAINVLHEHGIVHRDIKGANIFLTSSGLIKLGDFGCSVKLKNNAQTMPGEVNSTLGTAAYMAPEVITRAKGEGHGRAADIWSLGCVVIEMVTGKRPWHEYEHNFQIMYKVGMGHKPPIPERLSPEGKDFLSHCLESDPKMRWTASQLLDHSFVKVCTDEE

Sequence of Protein-tyrosine kinase 2-beta (Homo sapiens) (Q14289 whole entry, looked up): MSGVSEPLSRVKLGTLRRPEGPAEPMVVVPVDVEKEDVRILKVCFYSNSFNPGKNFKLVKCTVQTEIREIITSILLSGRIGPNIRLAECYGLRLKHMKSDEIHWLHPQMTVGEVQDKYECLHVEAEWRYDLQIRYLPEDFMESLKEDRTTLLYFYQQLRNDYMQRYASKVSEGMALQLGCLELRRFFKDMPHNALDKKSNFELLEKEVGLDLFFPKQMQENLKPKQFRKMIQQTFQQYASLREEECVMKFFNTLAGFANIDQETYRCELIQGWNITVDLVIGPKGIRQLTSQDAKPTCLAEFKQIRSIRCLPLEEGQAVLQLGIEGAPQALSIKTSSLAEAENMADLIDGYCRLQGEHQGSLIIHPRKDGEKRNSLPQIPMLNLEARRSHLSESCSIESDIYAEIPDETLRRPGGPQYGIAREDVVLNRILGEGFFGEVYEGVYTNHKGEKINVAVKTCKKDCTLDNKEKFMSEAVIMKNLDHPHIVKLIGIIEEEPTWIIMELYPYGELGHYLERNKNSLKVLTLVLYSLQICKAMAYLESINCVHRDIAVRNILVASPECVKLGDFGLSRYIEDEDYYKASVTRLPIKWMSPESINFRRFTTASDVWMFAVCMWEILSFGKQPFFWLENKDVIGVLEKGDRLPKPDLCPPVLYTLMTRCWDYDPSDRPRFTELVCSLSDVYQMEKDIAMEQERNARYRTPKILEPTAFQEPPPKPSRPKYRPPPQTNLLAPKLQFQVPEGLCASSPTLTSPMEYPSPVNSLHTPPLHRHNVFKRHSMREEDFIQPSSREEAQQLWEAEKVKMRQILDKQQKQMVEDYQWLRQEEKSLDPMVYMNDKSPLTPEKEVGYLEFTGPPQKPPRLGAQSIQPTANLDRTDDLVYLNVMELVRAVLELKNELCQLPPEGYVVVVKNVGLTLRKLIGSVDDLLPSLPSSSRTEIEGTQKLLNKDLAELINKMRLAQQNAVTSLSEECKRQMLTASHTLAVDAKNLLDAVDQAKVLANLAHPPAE
Sequence of Serine/threonine-protein kinase PLK1 (P53350 whole entry): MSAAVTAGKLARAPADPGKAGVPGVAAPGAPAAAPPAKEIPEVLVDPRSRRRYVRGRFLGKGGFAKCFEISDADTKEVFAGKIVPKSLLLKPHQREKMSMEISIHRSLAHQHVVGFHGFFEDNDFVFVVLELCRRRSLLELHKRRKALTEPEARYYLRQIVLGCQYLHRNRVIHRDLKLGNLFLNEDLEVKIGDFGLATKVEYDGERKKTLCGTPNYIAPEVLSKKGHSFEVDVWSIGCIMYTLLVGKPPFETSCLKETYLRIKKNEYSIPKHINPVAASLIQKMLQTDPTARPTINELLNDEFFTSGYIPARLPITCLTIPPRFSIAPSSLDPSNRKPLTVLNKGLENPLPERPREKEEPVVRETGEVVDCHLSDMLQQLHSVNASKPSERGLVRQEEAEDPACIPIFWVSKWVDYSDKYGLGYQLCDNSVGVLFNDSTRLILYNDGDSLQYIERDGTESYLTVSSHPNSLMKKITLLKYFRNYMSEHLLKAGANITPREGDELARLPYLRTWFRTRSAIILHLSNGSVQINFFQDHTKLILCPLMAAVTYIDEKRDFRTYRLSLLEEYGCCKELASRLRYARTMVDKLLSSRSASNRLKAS
Sequence of Serine/threonine-protein kinase 24 (Homo sapiens) (Q9Y6E0 whole entry, looked up): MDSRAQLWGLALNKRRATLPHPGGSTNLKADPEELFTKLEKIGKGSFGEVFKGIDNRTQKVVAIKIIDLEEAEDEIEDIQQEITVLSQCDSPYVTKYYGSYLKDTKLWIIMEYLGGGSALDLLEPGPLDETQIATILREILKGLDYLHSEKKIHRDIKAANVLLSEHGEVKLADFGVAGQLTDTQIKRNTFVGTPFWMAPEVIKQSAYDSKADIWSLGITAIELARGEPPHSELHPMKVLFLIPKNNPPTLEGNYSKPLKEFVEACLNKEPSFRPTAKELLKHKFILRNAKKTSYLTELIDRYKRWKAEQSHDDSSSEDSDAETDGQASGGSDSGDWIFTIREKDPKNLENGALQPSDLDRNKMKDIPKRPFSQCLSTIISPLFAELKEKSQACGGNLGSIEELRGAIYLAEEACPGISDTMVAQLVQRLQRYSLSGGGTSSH
Sequence of Mitogen-activated protein kinase 7 (Homo sapiens) (Q13164 2-816 limits assumed): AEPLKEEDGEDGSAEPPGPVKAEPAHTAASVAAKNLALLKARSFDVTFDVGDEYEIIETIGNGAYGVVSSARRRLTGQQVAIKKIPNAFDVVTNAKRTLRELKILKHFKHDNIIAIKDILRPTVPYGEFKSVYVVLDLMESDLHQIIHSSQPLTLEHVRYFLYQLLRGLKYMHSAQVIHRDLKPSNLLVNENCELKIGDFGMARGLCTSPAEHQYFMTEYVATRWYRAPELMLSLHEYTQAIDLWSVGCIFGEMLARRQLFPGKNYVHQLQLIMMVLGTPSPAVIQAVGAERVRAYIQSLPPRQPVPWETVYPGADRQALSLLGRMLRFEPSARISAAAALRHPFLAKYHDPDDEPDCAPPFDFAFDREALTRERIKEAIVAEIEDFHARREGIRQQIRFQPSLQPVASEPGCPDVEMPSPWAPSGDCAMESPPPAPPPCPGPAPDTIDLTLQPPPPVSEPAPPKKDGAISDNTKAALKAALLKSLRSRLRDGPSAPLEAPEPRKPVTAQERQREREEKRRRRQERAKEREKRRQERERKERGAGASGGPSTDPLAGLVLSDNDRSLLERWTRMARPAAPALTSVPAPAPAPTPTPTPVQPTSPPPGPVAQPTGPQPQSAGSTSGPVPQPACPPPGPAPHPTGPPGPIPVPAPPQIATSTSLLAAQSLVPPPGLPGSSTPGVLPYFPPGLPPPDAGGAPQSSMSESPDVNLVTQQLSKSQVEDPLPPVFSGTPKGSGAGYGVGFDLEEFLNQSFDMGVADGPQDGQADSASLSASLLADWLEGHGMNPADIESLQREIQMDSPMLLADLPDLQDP
Sequence of Serine/threonine-protein kinase PAK 4 (O96013 whole entry, looked up): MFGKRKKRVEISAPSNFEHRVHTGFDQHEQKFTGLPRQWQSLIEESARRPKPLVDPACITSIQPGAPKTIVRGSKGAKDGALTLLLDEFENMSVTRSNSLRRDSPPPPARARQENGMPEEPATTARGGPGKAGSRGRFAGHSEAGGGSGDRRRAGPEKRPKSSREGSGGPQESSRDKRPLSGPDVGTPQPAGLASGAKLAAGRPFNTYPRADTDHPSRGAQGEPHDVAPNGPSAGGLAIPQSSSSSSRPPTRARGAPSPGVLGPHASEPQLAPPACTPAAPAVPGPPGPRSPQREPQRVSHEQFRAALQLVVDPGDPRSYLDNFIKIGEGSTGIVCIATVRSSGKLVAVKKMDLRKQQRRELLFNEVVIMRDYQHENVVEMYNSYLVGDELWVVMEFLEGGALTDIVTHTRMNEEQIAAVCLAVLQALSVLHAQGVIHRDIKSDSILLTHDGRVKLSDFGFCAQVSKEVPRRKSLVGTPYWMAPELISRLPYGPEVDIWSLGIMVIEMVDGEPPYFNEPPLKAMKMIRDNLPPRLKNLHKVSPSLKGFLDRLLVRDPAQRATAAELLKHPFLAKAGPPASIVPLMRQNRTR

Compound: Cc1cc([C@@H](C)Nc2ccccc2C(=O)O)c2nc(N3CCOCC3)cc(=O)n2c1 [AZD-6482]
% of control [1]: 100% | % of control [2]: 100%

pXC50 [3]: < 4.8 M
Compound: CCn1c(-c2nc3cc(C(=O)N4CCCC(N)C4)ccc3n2C)cc2ccccc21 (stereo unspecified)

% of inhibition [4]: -7%
Compound: CN1Cc2nccc(-c3cn(C)nc3-c3ccc(F)cc3)c2C1=O

% of control [5]: 1.47%
Compound: Cn1cc(-n2cnc3c(NCc4nc5cc(Cl)c(Cl)cc5[nH]4)nc(N4CCOCC4)nc32)cn1

Compound: COCC(=O)NC/C=C/c1ccc2ncnc(Nc3ccc(Oc4ccc(C)nc4)c(C)c3)c2c1 [CP-724714]
% of control [6]: 74%

Compound: CCC(=O)N1CCN(c2ccc(-n3c(=O)ccc4cnc5ccc(-c6cnc7ccccc7c6)cc5c43)cc2C(F)(F)F)CC1
% of control [7]: 5.8%

Compound: CN(C)CCOc1ccc(-c2nc(-c3ccncc3)c(-c3ccc4c(c3)CC/C4=N\O)[nH]2)cc1
% of control [8]: 100%

Compound: N#Cc1cccc(-c2c[nH]c3ncnc(N4CCOCC4)c23)c1
% of inhibition [9]: -6%

Compound: CNC(=O)Nc1ccc(-c2nc(N3CC4CCC(C3)O4)c3cnn(C4CCC5(CC4)OCCO5)c3n2)cc1
% of inhibition [10]: 13%

Compound: O=C(NOC[C@H](O)CO)c1ccc(F)c(F)c1Nc1ccc(I)cc1F
% of control [11]: 100%
